Experimental data taken from patent US20090137577A1, “HETEROCYCLIC COMPOUNDS” (Pfizer Inc., priority 2007, published 2009).

These molecules were tested against T1, mGluR2 receptor (metabotropic glutamate receptor 2) (Homo sapiens, UniProt Q14416) (assay: mGluR2 potentiator screen (FLIPR, EC10-EC20 glutamate challenge)). Settings: geometric mean; read-out: mGluR 2 EC50 (geometric mean).
T1 construct: expressed in transfected cells
Type: cell-based
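Also: HEK cells stably expressing human mGluR2 with GL15 G protein, Fluo-4 calcium fluorescence read on FLIPR, compounds added before an EC10-EC20 glutamate challenge to detect potentiation.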

T1 sequence (Q14416 19-872, species assumed): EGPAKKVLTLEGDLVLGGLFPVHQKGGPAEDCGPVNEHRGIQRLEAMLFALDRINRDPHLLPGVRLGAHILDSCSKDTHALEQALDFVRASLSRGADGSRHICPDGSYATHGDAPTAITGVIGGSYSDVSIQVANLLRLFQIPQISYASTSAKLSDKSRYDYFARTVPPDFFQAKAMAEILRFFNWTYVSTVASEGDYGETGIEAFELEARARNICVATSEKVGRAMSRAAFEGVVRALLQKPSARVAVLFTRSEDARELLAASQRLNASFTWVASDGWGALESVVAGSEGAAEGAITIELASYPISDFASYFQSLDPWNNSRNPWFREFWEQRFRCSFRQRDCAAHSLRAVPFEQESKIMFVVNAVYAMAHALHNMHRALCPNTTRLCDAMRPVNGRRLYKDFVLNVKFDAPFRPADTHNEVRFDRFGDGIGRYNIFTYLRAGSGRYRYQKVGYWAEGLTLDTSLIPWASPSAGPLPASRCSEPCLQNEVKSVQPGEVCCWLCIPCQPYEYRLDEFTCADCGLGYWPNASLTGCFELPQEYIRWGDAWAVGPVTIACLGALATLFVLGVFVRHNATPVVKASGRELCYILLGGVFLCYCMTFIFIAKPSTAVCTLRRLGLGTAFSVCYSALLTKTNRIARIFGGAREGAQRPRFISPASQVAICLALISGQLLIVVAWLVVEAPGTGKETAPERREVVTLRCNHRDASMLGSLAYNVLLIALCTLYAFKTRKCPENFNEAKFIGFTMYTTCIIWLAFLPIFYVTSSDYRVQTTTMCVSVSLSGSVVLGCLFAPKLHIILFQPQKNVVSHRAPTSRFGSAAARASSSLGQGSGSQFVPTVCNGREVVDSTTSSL

EC50 [nM]	SMILES
49	CCOC(=O)c1cccc(-c2ccc(CN3C[C@@H](C)OC3=O)cc2)c1 [Example 169]
48.9	COc1ccc(Cl)cc1-c1ccc(CN2C[C@@H](C)OC2=O)cc1 [Example 196]
214	CCC[C@H](C)Oc1ccc(CN2CC(C)OC2=O)cc1 (stereo partly drawn) [Example 134]
24.8	C[C@@H]1CN(Cc2ccc(OCCCc3ccccc3)cc2)C(=O)O1 [Example 204, (5R)-5-methyl-3-[4-(3-phenylpropoxy)benzyl]-1,3-oxazolidin-2-one]
< 39.8	C[C@@H]1CN(Cc2ccc(-c3ccc(Cl)cc3F)cc2)C(=O)O1 [Example 256]
217	Cc1cc(CN2C[C@@H](C)OC2=O)ccc1OCc1ccc(F)cc1C(F)(F)F [Example 285, (5R)-3-(4-{[4-fluoro-2-(trifluoromethyl)benzyl]oxy}-3-methylbenzyl)-5-methyl-1,3-oxazolidin-2-one]
105	CC(C)Oc1ccc(-c2ccc(CN3C[C@H](C)OC3=O)cc2)cc1 [Example 58, (5S)-3-[(4′-isopropoxybiphenyl-4-yl)methyl]-5-methyl-1,3-oxazolidin-2-one]
< 40.8	CC(C)Oc1ccc(-c2ccc(CN3C[C@@H](C)OC3=O)cc2)cc1 [Example 57, (5R)-3-[(4′-isopropoxybiphenyl-4-yl)methyl]-5-methyl-1,3-oxazolidin-2-one]
676	COc1ccc(-c2ccc(CN3C[C@@H](C)OC3=O)cc2)cc1OC [Example 190]
217	COc1cccc(CCOc2ccc(CN3CC(C)OC3=O)cc2)c1 (stereo not drawn) [Example 105]
804	COc1ccc(-c2ccc(CN3C[C@@H](C)OC3=O)cc2F)cn1 [Example 295]
429	Cc1ccc(-c2ccc(CN3C[C@@H](C)OC3=O)cn2)c(F)c1 [Example 257]
930	C[C@@H]1CN(Cc2ccc(-c3cccc4cccnc34)cc2)C(=O)O1 [Example 173]
10.8	CC1CN(Cc2ccc(OCCC3CCCC3)cc2)C(=O)O1 (stereo not drawn) [Example 92]
83.7	C[C@@H]1CN(Cc2ccc(-c3ccc4c(c3)OCCCO4)cc2)C(=O)O1 [Example 189]
244	CC(Oc1ccc(CN2CC(c3ccccc3)OC2=O)cc1)c1ccccc1 (stereo not drawn) [Example 39]
77.7	O=C1OC(c2cccnc2)CN1Cc1ccc(-c2ccc(OC(F)(F)F)cc2F)cc1 (stereo not drawn) [Example 303, 3-{[2′-Fluoro-4′-(trifluoromethoxy)biphenyl-4-yl]methyl}-5-pyridin-3-yl-1,3-oxazolidin-2-one]
858	COc1ccc(F)c(-c2ccc(CN3C[C@@H](C)OC3=O)cn2)c1 [Example 260]
794	CC(Oc1ccc(CN2CCN(C(C)C3CCC3)CC2=O)cc1)C1CCCCC1 (stereo not drawn) [Example 221]
74.6	C[C@@H]1CN(Cc2ccc(-c3ccc(Cl)c(Cl)c3)cc2)C(=O)O1 [Example 182]

EC50 [nM]	SMILES
218	O=C1OC(c2ccccc2)CN1Cc1ccc(OCc2cccnc2)cc1 (stereo not drawn) [Example 13]
10.6	Cc1cc(-c2ccc(CN3C[C@@H](C)OC3=O)cc2)ccc1F [Example 160]
47.4	C[C@@H]1CN(Cc2ccc(-c3ccc(C(F)(F)F)cc3C(F)(F)F)cc2)C(=O)O1 [Example 275]
1470	COc1ccc(C(C)C)cc1-c1ccc(CN2C[C@@H](C)OC2=O)cn1 [Example 282]
947	CCC(CC)CN1CCN(Cc2ccc(OC(C)C3CCCCC3)cc2)C(=O)C1 (stereo not drawn) [Example 217]
92.9	C[C@@H]1CN(Cc2ccc(-c3ccc(F)c(F)c3)cc2)C(=O)O1 [Example 245]
55.9	CC[C@H](C)COc1ccc(CN2CC(C)OC2=O)cc1 (stereo partly drawn) [Example 100]
286	C[C@@H]1CN(Cc2ccc(-c3cnc4ccccc4c3)cc2)C(=O)O1 [Example 181]
995	CCC(COc1ccc(CN2CC(C)OC2=O)cc1)(c1ccccc1)N(C)C (stereo not drawn) [Example 141]
164	CC(C)Oc1ccc(-c2ccc(CN3C[C@@H](C)OC3=O)cn2)c(Cl)c1 [Example 278]
69.2	CC1CN(Cc2ccc(OCc3ccc(Cl)cc3)cc2)C(=O)O1 (stereo not drawn) [Example 89]
31.3	C[C@@H]1CN(Cc2ccc(-c3ccc(F)cc3Cl)cc2)C(=O)O1 [Example 274]
578	C[C@@H]1CN(Cc2ccc(-c3ccc(OC(F)F)cc3Cl)nc2)C(=O)O1 [Example 312]
78.9	O=C1OC(c2cccnc2)CN1Cc1ccc(-c2ccc(F)cc2F)cc1 (stereo not drawn) [Example 302, 3-[(2′,4′-Difluorobiphenyl-4-yl)methyl]-5-pyridin-3-yl-1,3-oxazolidin-2-one]
53.7	Cc1ccc(F)cc1-c1ccc(CN2C[C@@H](C)OC2=O)cc1 [Example 248]
683	C[C@@H]1CN(Cc2ccc(-c3cc(C#N)ccc3Cl)cc2)C(=O)O1 [Example 231]
43.5	Cc1ccc(F)cc1COc1ccc(CN2CC(C)OC2=O)cc1 (stereo not drawn) [Example 142]
42	CCC(C)CCOc1ccc(CN2CC(C)OC2=O)cc1 (stereo not drawn) [Example 94]
389	C[C@@H]1CN(Cc2ccc(CN3CCc4ccccc43)cc2)C(=O)O1 [Example 301, (5R)-3-[4-(2,3-Dihydro-1H-indol-1-ylmethyl)benzyl]-5-methyl-1,3-oxazolidin-2-one]
